Molecules are shown by their SMILES.

T1 sequence (P01116 1-169 isoform P01116-2 G12C/C51S/C80L/C118S): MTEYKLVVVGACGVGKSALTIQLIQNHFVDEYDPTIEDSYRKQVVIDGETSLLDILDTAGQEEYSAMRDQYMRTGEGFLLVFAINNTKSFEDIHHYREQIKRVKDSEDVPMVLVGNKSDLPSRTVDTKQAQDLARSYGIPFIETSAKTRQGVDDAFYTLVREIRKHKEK

The assay addresses T1, KRAS G12C (GMPPNP-loaded) and cRAF Ras-binding domain (Homo sapiens, UniProt P01116, C118S/C51S/C80L/G12C).
T1 construct: truncated version comprising amino acids 1-169
Nature of the assay: Inhibition of KRAS G12C and cRAF binding (AlphaScreen). The following applies: KRAS G12C preloaded with GTP analogue GMPPNP, 2 hours preincubation. In a few lines: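 Compounds (10-point, 1:3 from 50 μM; 2% DMSO) were incubated 2 h at room temperature with 0.5 nM GMPPNP-preloaded truncated Cys-light KRAS G12C, then 60-90 min with 0.75 nM GST-RBD of cRAF and AlphaScreen beads. Signal at 570 nm gave IC50 by 4-parameter regression, and a biotin-AviTag-GST counter assay excluded interference with the AlphaScreen readout.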
A word on the IC50: it is the concentration needed to halve the response being measured. Molecule `C=CC(=O)N1CC[C@@H](N(C)c2nc(OC[C@@]34CCCN3C[C@H](F)C4)nc3c2C[C@H](C)[C@@H](c2nc(N)cc(C)c2C(F)(F)F)C3)C1` [Example 145, 1-((R)-3-(((6S,7S)-7-(6-amino-4-methyl-3-(trifluoromethyl)pyridin-2-yl)-2-(((2R,7aS)-2-fluorotetrahydro-1H-pyrrolizin-7a(5H)-yl)methoxy)-6-methyl-5,6,7,8-tetrahydroquinazolin-4-yl)(methyl)amino)pyrrolidin-1-yl)prop-2-en-1-one] yielded a 50% inhibitory concentration (IC50) not below 500 nM.
`C=CC(=O)N1CC(CN(C)c2nc(OC[C@@]34CCCN3C[C@H](F)C4)nc3c(F)c(-c4nc(N)cc(C)c4C)ncc23)C1` [Example 146, 1-(3-(((7-(6-amino-3,4-dimethylpyridin-2-yl)-8-fluoro-2-(((2R,7aS)-2-fluorotetrahydro-1H-pyrrolizin-7a(5H)-yl)methoxy)pyrido[4,3-d]pyrimidin-4-yl)(methyl)amino)methyl)azetidin-1-yl)prop-2-en-1-one] returned an IC50 not below 500 nM.
In turn, `Cc1cc(N)nc(N2CCc3c(nc(OC[C@@]45CCCN4C[C@H](F)C5)nc3N(C)[C@@H]3CCN(C(=O)/C=C/c4nc(C(C)C)no4)C3)C2)c1C(F)(F)F` [Example 147, (E)-1-((R)-3-((7-(6-amino-4-methyl-3-(trifluoromethyl)pyridin-2-yl)-2-(((2R,7aS)-2-fluorotetrahydro-1H-pyrrolizin-7a(5H)-yl)methoxy)-5,6,7,8-tetrahydropyrido[3,4-d]pyrimidin-4-yl)(methyl)amino)pyrrolidin-1-yl)-3-(3-isopropyl-1,2,4-oxadiazol-5-yl)prop-2-en-1-one] displayed an IC50 not below 500 nM.
Regarding `C=CC(=O)N1CC[C@@H](N(C)c2nc(OCC34CCCN3CCC4)nc3c2C[C@H](C)[C@@H](c2nc(N)cc(C)c2C(F)(F)F)C3)C1` [Example 148, 1-((R)-3-(((6S,7S)-7-(6-amino-4-methyl-3-(trifluoromethyl)pyridin-2-yl)-6-methyl-2-((tetrahydro-1H-pyrrolizin-7a(5H)-yl)methoxy)-5,6,7,8-tetrahydroquinazolin-4-yl)(methyl)amino)pyrrolidin-1-yl)prop-2-en-1-one], the IC50 lay in the range of 100 to 500 nM.
With `C=CC(=O)N1CC[C@@H](N(C)c2nc(OCC34CCCN3CCC4)nc3c2C[C@@H](C)[C@H](c2nc(N)cc(C)c2C(F)(F)F)C3)C1` [Example 149, 1-((R)-3-(((6R,7R)-7-(6-amino-4-methyl-3-(trifluoromethyl)pyridin-2-yl)-6-methyl-2-((tetrahydro-1H-pyrrolizin-7a(5H)-yl)methoxy)-5,6,7,8-tetrahydroquinazolin-4-yl)(methyl)amino)pyrrolidin-1-yl)prop-2-en-1-one], the half-maximal inhibitory concentration (IC50) is not below 500 nM.
In turn, `Cc1noc(/C=C/C(=O)N2CC[C@@H](N(C)c3nc(OC[C@@]45CCCN4C[C@H](F)C5)nc4c(F)c(-c5nc(N)cc6cccc(Cl)c56)ncc34)C2)n1` [Example 150, (E)-1-((R)-3-((7-(3-amino-8-chloroisoquinolin-1-yl)-8-fluoro-2-(((2R,7aS)-2-fluorotetrahydro-1H-pyrrolizin-7a(5H)-yl)methoxy)pyrido[4,3-d]pyrimidin-4-yl)(methyl)amino)pyrrolidin-1-yl)-3-(3-methyl-1,2,4-oxadiazol-5-yl)prop-2-en-1-one] showed an IC50 of less than 10 nM.
For `CN(CC1CN(C(=O)/C=C/c2nc(C(C)(C)O)no2)C1)c1nc(OC[C@@]23CCCN2C[C@H](F)C3)nc2c(F)c(-c3nc(N)cc4cccc(Cl)c34)ncc12` [Example 151], the half-maximal inhibitory concentration (IC50) was less than 10 nM.
As to `Cc1cc(N)nc(-c2ncc3c(N(C)CC4CN(C(=O)/C=C/c5nc(C(C)C)no5)C4)nc(OC[C@@]45CCCN4C[C@H](F)C5)nc3c2F)c1C(F)(F)F` [Example 153], the IC50 was less than 10 nM.
As for `Cc1cc(N)nc(-c2ncc3c(N(C)CC4CN(C(=O)/C=C/c5nc(C(C)C)no5)C4)nc(OC[C@@]45CCCN4C[C@H](F)C5)nc3c2F)c1C(F)(F)F` [Example 154], the concentration for half-maximal inhibition (IC50) is 10 to 100 nM.
For `Cc1nccc(/C=C/C(=O)N2CC(CN(C)c3nc(OC[C@@]45CCCN4C[C@H](F)C5)nc4c(F)c(-c5nc(N)cc6cccc(Cl)c56)ncc34)C2)n1` [Example 156, (E)-1-(3-(((7-(3-amino-8-chloroisoquinolin-1-yl)-8-fluoro-2-(((2R,7aS)-2-fluorotetrahydro-1H-pyrrolizin-7a(5H)-yl)methoxy)pyrido[4,3-d]pyrimidin-4-yl)(methyl)amino)methyl)azetidin-1-yl)-3-(2-methylpyrimidin-4-yl)prop-2-en-1-one], the concentration for half-maximal inhibition (IC50) lay in the range of 10 to 100 nM.
With `Cc1nsc(/C=C/C(=O)N2CC[C@@H](N(C)c3nc(OC[C@@]45CCCN4C[C@H](F)C5)nc4c3C[C@@H](C)[C@H](c3nc(N)cc(C)c3C(F)(F)F)C4)C2)n1` [Example 158, (E)-1-((R)-3-(((6R,7R)-7-(6-amino-4-methyl-3-(trifluoromethyl)pyridin-2-yl)-2-(((2R,7aS)-2-fluorotetrahydro-1H-pyrrolizin-7a(5H)-yl)methoxy)-6-methyl-5,6,7,8-tetrahydroquinazolin-4-yl)(methyl)amino)pyrrolidin-1-yl)-3-(3-methyl-1,2,4-thiadiazol-5-yl)prop-2-en-1-one], the IC50 was in the range of 10 to 100 nM.
Take `Cc1cc(N)nc(-c2ncc3c(N(C)[C@@H]4CCN(C(=O)C#CCN(C)C)C4)nc(OC[C@@]45CCCN4C[C@H](F)C5)nc3c2F)c1C(F)(F)F` [Example 159]: the IC50 was less than 10 nM.
As to `Cc1nsc(/C=C/C(=O)N2CC[C@@H](N(C)c3nc(OC[C@@]45CCCN4C[C@H](F)C5)nc4c(F)c(-c5nc(N)cc(C)c5C(F)(F)F)ncc34)C2)n1` [Example 164], the IC50 was 10 to 100 nM.
For `C=CC(=O)N1CC[C@@H](N(C)c2nc(OC[C@@]34CCCN3C[C@H](F)C4)nc3c(F)c(-c4nc(N)ccc4C4CC4)ncc23)C1` [Example 166, 1-((R)-3-((7-(6-amino-3-cyclopropylpyridin-2-yl)-8-fluoro-2-(((2R,7aS)-2-fluorotetrahydro-1H-pyrrolizin-7a(5H)-yl)methoxy)pyrido[4,3-d]pyrimidin-4-yl)(methyl)amino)pyrrolidin-1-yl)prop-2-en-1-one], the half-inhibitory concentration (IC50) was not below 500 nM.
The same measure for `CN(c1nc(OC[C@@]23CCCN2C[C@H](F)C3)nc2c(F)c(-c3nc(N)cc4cccc(F)c34)ncc12)[C@@H]1CCN(C(=O)/C=C/CN2CCOCC2)C1` [Example 167, (E)-1-((R)-3-((7-(3-amino-8-fluoroisoquinolin-1-yl)-8-fluoro-2-(((2R,7aS)-2-fluorotetrahydro-1H-pyrrolizin-7a(5H)-yl)methoxy)pyrido[4,3-d]pyrimidin-4-yl)(methyl)amino)pyrrolidin-1-yl)-4-morpholinobut-2-en-1-one]: not below 500 nM; for `CN(CC1CN(C(=O)/C=C/c2nc(C(C)(F)F)no2)C1)c1nc(OC[C@@]23CCCN2C[C@H](F)C3)nc2c(F)c(-c3nc(N)cc4cccc(Cl)c34)ncc12` [Example 169, (E)-1-(3-(((7-(3-amino-8-chloroisoquinolin-1-yl)-8-fluoro-2-(((2R,7aS)-2-fluorotetrahydro-1H-pyrrolizin-7a(5H)-yl)methoxy)pyrido[4,3-d]pyrimidin-4-yl)(methyl)amino)methyl)azetidin-1-yl)-3-(3-(1,1-difluoroethyl)-1,2,4-oxadiazol-5-yl)prop-2-en-1-one]: less than 10 nM; for `Cc1cc(N)nc(-c2ncc3c(N(C)[C@@H]4CCN(C(=O)/C=C/c5nc(C(C)C)no5)C4)nc(OC[C@@]45CCCN4C[C@H](F)C5)nc3c2F)c1C1CC1` [Example 170]: 10 to 100 nM.
Under `C=CC(=O)N1CC[C@@H](N(C)c2nc(OC[C@@]34CCCN3C[C@H](F)C4)nc3c(F)c(-c4nc(N)cc(C)c4C)ncc23)C1` [Example 171] stands 100 to 500 nM.
Under `Cc1cc(N)nc(-c2ncc3c(N(C)CC4CN(C(=O)/C=C/c5nc(C(C)C)no5)C4)nc(OC[C@@]45CCCN4C[C@H](F)C5)nc3c2F)c1C1CC1` [Example 175] stands 100 to 500 nM; under `Cc1cc(N)nc(-c2ncc3c(N(C)CC4CN(C(=O)/C=C/c5nc(C6CC6)no5)C4)nc(OC[C@@]45CCCN4C[C@H](F)C5)nc3c2F)c1C(F)(F)F` [Example 176], less than 10 nM; under `CC(C)c1noc(/C=C/C(=O)N2CC[C@@H](N(C)c3nc(OC[C@@]45CCCN4C[C@H](F)C5)nc4c(F)c(-c5nc(N)ccc5F)ncc34)C2)n1` [Example 178, (E)-1-((R)-3-((7-(6-amino-3-fluoropyridin-2-yl)-8-fluoro-2-(((2R,7aS)-2-fluorotetrahydro-1H-pyrrolizin-7a(5H)-yl)methoxy)pyrido[4,3-d]pyrimidin-4-yl)(methyl)amino)pyrrolidin-1-yl)-3-(3-isopropyl-1,2,4-oxadiazol-5-yl)prop-2-en-1-one], not below 500 nM.
As to `C=CC(=O)N1CC[C@@H](N(C)c2nc(OC[C@@]34CCCN3C[C@H](F)C4)nc3c(F)c(-c4cn[nH]c4C4CC4)ncc23)C1` [Example 179], the half-maximal inhibitory concentration (IC50) is not below 500 nM.
Under `CN1CC[C@@H]1/C=C/C(=O)N1CC[C@@H](N(C)c2nc(OC[C@@]34CCCN3C[C@H](F)C4)nc3c(F)c(-c4cc(O)cc(F)c4C4CC4)ncc23)C1` [Example 180] stands less than 10 nM.
`C=CC(=O)N1CC[C@@H](N(C)c2nc(OC[C@@]34CCCN3C[C@H](F)C4)nc3c(F)c(-c4ccccc4C(F)F)ncc23)C1` [Example 181] showed a half-inhibitory concentration (IC50) not below 500 nM.
For the molecule `C=CC(=O)N1CC[C@@H](N(C)c2nc(OC[C@@]34CCCN3C[C@H](F)C4)nc3c(F)c(-c4ccccc4OC(F)F)ncc23)C1` [Example 182], the half-maximal inhibitory concentration (IC50) was not below 500 nM.
The same measure for `C=CC(=O)N1CC[C@@H](N(C)c2nc(OC[C@@]34CCCN3C[C@H](F)C4)nc3c(F)c(-c4scnc4C)ncc23)C1` [Example 183]: not below 500 nM; for `CN(C)C/C=C/C(=O)N1CC[C@@H](N(C)c2nc(OC[C@@]34CCCN3C[C@H](F)C4)nc3c(F)c(-c4cccc(Cl)c4C4CC4)ncc23)C1` [Example 184]: 10 to 100 nM.

Source of the values: patent US20260256789A1, “METHODS FOR TREATMENT OF CANCER” (Frontier Medicines Corporation, priority 2022, published 2026).
